According to PubChem BioAssay (NCI):
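Cultured in 96-well plates, cells were exposed to test compound for 48 hours across five concentrations. GI50 = concentration required for 50% inhibition of growth. Definition used: TGI = concentration required for complete inhibition of growth.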

Key:
Assay in all cases: DTP human tumour cell line panel, 48 h
SW-620 colon = tested on: SW-620 colon
TK-10 renal = tested on: TK-10 renal
BT-549 breast = tested on: BT-549 breast
K-562 leukemia = tested on: K-562 leukemia
MCF7 breast = tested on: MCF7 breast
NCI/ADR-RES ovarian = tested on: NCI/ADR-RES ovarian
DU-145 prostate = tested on: DU-145 prostate
CAKI-1 renal = tested on: CAKI-1 renal
NCI-H23 lung = tested on: NCI-H23 lung
SK-MEL-2 melanoma = tested on: SK-MEL-2 melanoma
HCC-2998 colon = tested on: HCC-2998 colon
OVCAR-4 ovarian = tested on: OVCAR-4 ovarian
CCRF-CEM leukemia = tested on: CCRF-CEM leukemia
IGROV1 ovarian = tested on: IGROV1 ovarian
NCI-H460 lung = tested on: NCI-H460 lung
UO-31 renal = tested on: UO-31 renal
NCI-H226 lung = tested on: NCI-H226 lung
HCT-116 colon = tested on: HCT-116 colon
HL-60(TB) leukemia = tested on: HL-60(TB) leukemia
SR leukemia = tested on: SR leukemia
HOP-62 NSCLC = tested on: HOP-62 NSCLC
PC-3 prostate = tested on: PC-3 prostate
T-47D breast = tested on: T-47D breast
SNB-19 CNS = tested on: SNB-19 CNS
A498 renal = tested on: A498 renal
MDA-MB-231 breast = tested on: MDA-MB-231 breast
MOLT-4 leukemia = tested on: MOLT-4 leukemia
SN12C renal = tested on: SN12C renal
MALME-3M melanoma = tested on: MALME-3M melanoma
U251 CNS = tested on: U251 CNS
OVCAR-3 ovarian = tested on: OVCAR-3 ovarian
SF-295 CNS = tested on: SF-295 CNS
SNB-75 CNS = tested on: SNB-75 CNS
MDA-MB-435 = tested on: MDA-MB-435
NCI-H522 lung = tested on: NCI-H522 lung
M14 melanoma = tested on: M14 melanoma
HS 578T breast = tested on: HS 578T breast
SK-MEL-5 melanoma = tested on: SK-MEL-5 melanoma
SK-MEL-28 melanoma = tested on: SK-MEL-28 melanoma
OVCAR-5 ovarian = tested on: OVCAR-5 ovarian
ACHN renal = tested on: ACHN renal
HCT-15 colon = tested on: HCT-15 colon
LOX IMVI melanoma = tested on: LOX IMVI melanoma
HOP-92 NSCLC = tested on: HOP-92 NSCLC
A549 NSCLC = tested on: A549 NSCLC
RXF 393 renal = tested on: RXF 393 renal
HT29 colon = tested on: HT29 colon
RPMI-8226 leukemia = tested on: RPMI-8226 leukemia
SK-OV-3 ovarian = tested on: SK-OV-3 ovarian
OVCAR-8 ovarian = tested on: OVCAR-8 ovarian
SF-268 CNS = tested on: SF-268 CNS
UACC-257 melanoma = tested on: UACC-257 melanoma
SF-539 CNS = tested on: SF-539 CNS
KM12 colon = tested on: KM12 colon
UACC-62 melanoma = tested on: UACC-62 melanoma
786-0 renal = tested on: 786-0 renal
COLO 205 colon = tested on: COLO 205 colon

## CCN(CCc1ccc(F)cc1)c1ccc(CO)c(Cl)c1
SW-620 colon
  GI50: 8.84 µM
  TGI: 24.2 µM
TK-10 renal
  GI50: 366 nM
  TGI: 1700 nM
BT-549 breast
  GI50: 11.4 µM
  TGI: 23.8 µM
K-562 leukemia
  GI50: 4.21 µM
  TGI: 25.7 µM
MCF7 breast
  GI50: 4.72 µM
  TGI: 19.9 µM
NCI/ADR-RES ovarian
  GI50: 11.8 µM
  TGI: 28.1 µM
DU-145 prostate
  GI50: 14.4 µM
  TGI: 29.2 µM
CAKI-1 renal
  GI50: 4.23 µM
  TGI: 17.2 µM
NCI-H23 lung
  GI50: 12.2 µM
  TGI: 31 µM
SK-MEL-2 melanoma
  GI50: 7.29 µM
  TGI: 21.1 µM
HCC-2998 colon
  GI50: 12.6 µM
  TGI: 26.5 µM
OVCAR-4 ovarian
  GI50: 2230 nM
  TGI: 15.3 µM
CCRF-CEM leukemia
  GI50: 15.6 µM
  TGI: 47.3 µM
IGROV1 ovarian
  GI50: 824 nM
  TGI: 7.11 µM
NCI-H460 lung
  GI50: 6.3 µM
  TGI: 21.6 µM
UO-31 renal
  GI50: 11.1 µM
  TGI: 23.8 µM
NCI-H226 lung
  GI50: 199 nM
  TGI: 637 nM
HCT-116 colon
  GI50: 1850 nM
  TGI: 13.5 µM
HL-60(TB) leukemia
  GI50: 9.01 µM
  TGI: 30.3 µM
SR leukemia
  GI50: 13.1 µM
  TGI: 42.5 µM
HOP-62 NSCLC
  GI50: 13.1 µM
  TGI: 26.2 µM
PC-3 prostate
  GI50: 10.9 µM
  TGI: 24.8 µM
T-47D breast
  GI50: 1390 nM
  TGI: 12.7 µM
SNB-19 CNS
  GI50: 13.2 µM
  TGI: 26.6 µM
A498 renal
  GI50: 120 nM
  TGI: 268 nM
MDA-MB-231 breast
  GI50: 11.4 µM
  TGI: 24.4 µM
MOLT-4 leukemia
  GI50: 14.3 µM
  TGI: 50.1 µM
SN12C renal
  GI50: 9.27 µM
  TGI: 23 µM
MALME-3M melanoma
  GI50: 16 µM
  TGI: 31.1 µM
U251 CNS
  GI50: 4.06 µM
  TGI: 17.3 µM
OVCAR-3 ovarian
  GI50: 4.27 µM
  TGI: 15.4 µM
SF-295 CNS
  GI50: 3.44 µM
  TGI: 17.6 µM
SNB-75 CNS
  GI50: 9.26 µM
  TGI: 25.9 µM
MDA-MB-435
  GI50: 15.6 µM
  TGI: 31.8 µM
NCI-H522 lung
  GI50: 10.9 µM
  TGI: 25.4 µM
M14 melanoma
  GI50: 13.8 µM
  TGI: 28.7 µM
HS 578T breast
  GI50: 11.5 µM
  TGI: 32.4 µM
SK-MEL-5 melanoma
  GI50: 13 µM
  TGI: 25.9 µM
SK-MEL-28 melanoma
  GI50: 16.3 µM
  TGI: 31.2 µM
OVCAR-5 ovarian
  GI50: 505 nM
  TGI: 2280 nM
ACHN renal
  GI50: 9.59 µM
  TGI: 22.5 µM
HCT-15 colon
  GI50: 9.84 µM
  TGI: 24.6 µM
LOX IMVI melanoma
  GI50: 12.1 µM
  TGI: 25.6 µM
HOP-92 NSCLC
  GI50: 1940 nM
  TGI: 13.5 µM
A549 NSCLC
  GI50: 9.36 µM
  TGI: 24.4 µM
RXF 393 renal
  GI50: 4.72 µM
  TGI: 19.9 µM
HT29 colon
  GI50: 11.3 µM
  TGI: 27.3 µM
RPMI-8226 leukemia
  GI50: 4.69 µM
  TGI: 27.4 µM
SK-OV-3 ovarian
  GI50: 12.4 µM
  TGI: 27.8 µM
OVCAR-8 ovarian
  GI50: 10.8 µM
  TGI: 27.4 µM
SF-268 CNS
  GI50: 14.3 µM
  TGI: 28.6 µM
UACC-257 melanoma
  GI50: 1420 nM
  TGI: 4.87 µM
SF-539 CNS
  GI50: 15.7 µM
  TGI: 29.3 µM
KM12 colon
  GI50: 15 µM
  TGI: 30 µM
UACC-62 melanoma
  GI50: 1320 nM
  TGI: 8.41 µM
786-0 renal
  GI50: 12.2 µM
  TGI: 27 µM
COLO 205 colon
  GI50: 7.06 µM
  TGI: 21.5 µM
